Measurements taken from US12077503B2, “Substituted cyclic amides and their use as herbicides” (FMC CORPORATION, priority 2015, dated 2024).

Assays:
Assay type in all cases: in vivo
[1] = tested on: barnyardgrass (Echinochloa crus-galli); assay: Test G Pre-Emergence Protocol; settings: Echinochloa crus-galli, pre-emergence, 312 h, evaluated after 13 days; for pest or weed control at 15.625 g/ha: 15.625 g ai/ha, read-out: Barnyard grass damage rating (100=total damage to plant; 0=no damage to plant); for pest or weed control at 62.5 g/ha: 62.5 g ai/ha, 100=total damage to plant, 0=no damage to plant, read-out: plant damage rating, Barnyardgrass; for pest or weed control at 250 g/ha: 250 g ai/ha, read-out: Barnyardgrass damage rating (100=total damage to plant; 0=no damage to plant)
In short: (§1)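 One day after sowing, pots are treated with a spray of test compound formulated in acetone/water 50:50 plus 0.5% Tween 20, giving 15.625, 62.5 or 250 g/ha. Evaluation on a 0–100 damage scale follows 13 days of glasshouse growth.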

corn (Zea mays) [2] = assay: Test G Pre-Emergence Protocol; settings: Zea mays, pre-emergence, 312 h, evaluated after 13 days; for plant injury at 15.625 g/ha: 15.625 g ai/ha; for plant injury at 15.625 g/ha / plant injury at 250 g/ha: read-out: Corn damage rating (100=total damage to plant; 0=no damage to plant); for plant injury at 62.5 g/ha: 62.5 g ai/ha, 100=total damage to plant, 0=no damage to plant, read-out: plant damage rating, Corn; for plant injury at 250 g/ha: 250 g ai/ha
In short: as §1

[3] = tested on: giant foxtail (Setaria faberi); assay: Test G Pre-Emergence Protocol; settings: Setaria faberi, pre-emergence, 312 h, evaluated after 13 days; for pest or weed control at 15.625 g/ha: 15.625 g ai/ha; for pest or weed control at 15.625 g/ha / pest or weed control at 250 g/ha: read-out: Foxtail, Giant damage rating (100=total damage to plant; 0=no damage to plant); for pest or weed control at 62.5 g/ha: 62.5 g ai/ha, 100=total damage to plant, 0=no damage to plant, read-out: plant damage rating, Foxtail, Giant; for pest or weed control at 250 g/ha: 250 g ai/ha
In short: as §1

[4] = tested on: ivy-leaved morning glory (Ipomoea hederacea); assay: Test G Pre-Emergence Protocol; settings: Ipomoea, pre-emergence, 312 h, evaluated after 13 days; for pest or weed control at 15.625 g/ha: 15.625 g ai/ha, read-out: Morning-glory, Ivy-leaved damage rating (100=total damage to plant; 0=no damage to plant); for pest or weed control at 62.5 g/ha: 62.5 g ai/ha, 100=total damage to plant, 0=no damage to plant, read-out: plant damage rating, Morningglory, Ivy-leaved; for pest or weed control at 250 g/ha: 250 g ai/ha, read-out: Morningglory, Ivy-leaved damage rating (100=total damage to plant; 0=no damage to plant)
In short: as §1

[5] = tested on: redroot pigweed (Amaranthus retroflexus); assay: Test G Pre-Emergence Protocol; settings: Amaranthus retroflexus, pre-emergence, 312 h, evaluated after 13 days; for pest or weed control at 15.625 g/ha: 15.625 g ai/ha; for pest or weed control at 15.625 g/ha / pest or weed control at 250 g/ha: read-out: Pigweed, Redroot damage rating (100=total damage to plant; 0=no damage to plant); for pest or weed control at 62.5 g/ha: 62.5 g ai/ha, 100=total damage to plant, 0=no damage to plant, read-out: plant damage rating, Pigweed, Redroot; for pest or weed control at 250 g/ha: 250 g ai/ha
In short: as §1

[6] = tested on: velvetleaf (Abutilon theophrasti); assay: Test G Pre-Emergence Protocol; settings: Abutilon theophrasti, pre-emergence, 312 h, evaluated after 13 days; for pest or weed control at 15.625 g/ha: 15.625 g ai/ha; for pest or weed control at 15.625 g/ha / pest or weed control at 250 g/ha: read-out: Velvetleaf damage rating (100=total damage to plant; 0=no damage to plant); for pest or weed control at 62.5 g/ha: 62.5 g ai/ha, 100=total damage to plant, 0=no damage to plant, read-out: plant damage rating, Velvetleaf; for pest or weed control at 250 g/ha: 250 g ai/ha
In short: as §1

[7] = tested on: barnyardgrass (Echinochloa crus-galli); assay: Test G Post-Emergence Protocol; settings: Echinochloa crus-galli, post-emergence, 312 h; for pest or weed control at 15.625 g/ha: 15.625 g ai/ha, evaluated after 13 days (100=total damage to plant; 0=no damage to plant), read-out: Barnyardgrass damage rating; for pest or weed control at 62.5 g/ha: 62.5 g ai/ha, read-out: Barnyardgrass damage rating (100=total damage to plant; 0=no damage to plant); for pest or weed control at 62.5 g/ha / pest or weed control at 250 g/ha: evaluated after 13 days; for pest or weed control at 250 g/ha: 250 g ai/ha, read-out: damage to plant, Barnyardgrass (100=total damage to plant; 0=no damage to plant)
In short: (§2)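 A glasshouse post-emergence test: 8-day-old plants sprayed at 15.625, 62.5 or 250 g/ha, then grown at 24/16 °C day/night with 14 h light and 65% humidity. Damage rated 13 days later, 0–100.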

corn (Zea mays) [8] = assay: Test G Post-Emergence Protocol; settings: Zea mays, post-emergence, 312 h; for plant injury at 15.625 g/ha: 15.625 g ai/ha, evaluated after 13 days (100=total damage to plant; 0=no damage to plant), read-out: Corn damage rating; for plant injury at 62.5 g/ha: 62.5 g ai/ha, read-out: Corn damage rating (100=total damage to plant; 0=no damage to plant); for plant injury at 62.5 g/ha / plant injury at 250 g/ha: evaluated after 13 days; for plant injury at 250 g/ha: 250 g ai/ha, read-out: damage to plant, Corn (100=total damage to plant; 0=no damage to plant)
In short: as §2

[9] = tested on: giant foxtail (Setaria faberi); assay: Test G Post-Emergence Protocol; settings: Setaria faberi, post-emergence, 312 h; for pest or weed control at 15.625 g/ha: 15.625 g ai/ha, evaluated after 13 days (100=total damage to plant; 0=no damage to plant), read-out: Foxtail, Giant damage rating; for pest or weed control at 62.5 g/ha: 62.5 g ai/ha, read-out: Foxtail, Giant damage rating (100=total damage to plant; 0=no damage to plant); for pest or weed control at 62.5 g/ha / pest or weed control at 250 g/ha: evaluated after 13 days; for pest or weed control at 250 g/ha: 250 g ai/ha, read-out: damage to plant, Foxtail, Giant (100=total damage to plant; 0=no damage to plant)
In short: as §2

[10] = tested on: ivy-leaved morning glory (Ipomoea hederacea); assay: Test G Post-Emergence Protocol; settings: Ipomoea, post-emergence, 312 h; for pest or weed control at 15.625 g/ha: 15.625 g ai/ha, evaluated after 13 days (100=total damage to plant; 0=no damage to plant), read-out: Morningglory, Ivy-leaved damage rating; for pest or weed control at 62.5 g/ha: 62.5 g ai/ha, read-out: Morningglory, Ivy-leaved damage rating (100=total damage to plant; 0=no damage to plant); for pest or weed control at 62.5 g/ha / pest or weed control at 250 g/ha: evaluated after 13 days; for pest or weed control at 250 g/ha: 250 g ai/ha, read-out: damage to plant, Morningglory, Ivy-leaved (100=total damage to plant; 0=no damage to plant)
In short: as §2

[11] = tested on: redroot pigweed (Amaranthus retroflexus); assay: Test G Post-Emergence Protocol; settings: Amaranthus retroflexus, post-emergence, 312 h; for pest or weed control at 15.625 g/ha: 15.625 g ai/ha, evaluated after 13 days (100=total damage to plant; 0=no damage to plant), read-out: Pigweed, Redroot damage rating; for pest or weed control at 62.5 g/ha: 62.5 g ai/ha, read-out: Pigweed, Redroot damage rating (100=total damage to plant; 0=no damage to plant); for pest or weed control at 62.5 g/ha / pest or weed control at 250 g/ha: evaluated after 13 days; for pest or weed control at 250 g/ha: 250 g ai/ha, read-out: damage to plant, Pigweed, Redroot (100=total damage to plant; 0=no damage to plant)
In short: as §2

[12] = tested on: velvetleaf (Abutilon theophrasti); assay: Test G Post-Emergence Protocol; settings: Abutilon theophrasti, post-emergence, 312 h; for pest or weed control at 15.625 g/ha: 15.625 g ai/ha, evaluated after 13 days (100=total damage to plant; 0=no damage to plant), read-out: Velvetleaf damage rating; for pest or weed control at 62.5 g/ha: 62.5 g ai/ha, read-out: Velvetleaf damage rating (100=total damage to plant; 0=no damage to plant); for pest or weed control at 62.5 g/ha / pest or weed control at 250 g/ha: evaluated after 13 days; for pest or weed control at 250 g/ha: 250 g ai/ha, read-out: damage to plant, Velvetleaf (100=total damage to plant; 0=no damage to plant)
In short: as §2

CN1C[C@@H](c2ccc(C(F)(F)F)cc2)[C@H](C(=O)Nc2ccnc(F)c2)C1=O (racemic) [Compound 1529]
0%: pest or weed control at 15.625 g/ha [1] | pest or weed control at 62.5 g/ha [1] | pest or weed control at 250 g/ha [1] | plant injury at 15.625 g/ha (corn (Zea mays) [2]) | plant injury at 62.5 g/ha (corn (Zea mays) [2]) | plant injury at 250 g/ha (corn (Zea mays) [2]) | pest or weed control at 15.625 g/ha [3] | pest or weed control at 62.5 g/ha [3] | pest or weed control at 250 g/ha [3] | pest or weed control at 15.625 g/ha [4] | pest or weed control at 62.5 g/ha [4] | pest or weed control at 250 g/ha [4] | pest or weed control at 15.625 g/ha [5] | pest or weed control at 62.5 g/ha [5] | pest or weed control at 250 g/ha [5] | pest or weed control at 15.625 g/ha [6] | pest or weed control at 62.5 g/ha [6] | pest or weed control at 250 g/ha [6] | pest or weed control at 15.625 g/ha [7] | pest or weed control at 62.5 g/ha [7] | pest or weed control at 250 g/ha [7] | plant injury at 15.625 g/ha (corn (Zea mays) [8]) | plant injury at 62.5 g/ha (corn (Zea mays) [8]) | plant injury at 250 g/ha (corn (Zea mays) [8]) | pest or weed control at 15.625 g/ha [9] | pest or weed control at 62.5 g/ha [9] | pest or weed control at 250 g/ha [9] | pest or weed control at 15.625 g/ha [10] | pest or weed control at 62.5 g/ha [10] | pest or weed control at 250 g/ha [10] | pest or weed control at 15.625 g/ha [11] | pest or weed control at 62.5 g/ha [11] | pest or weed control at 250 g/ha [11] | pest or weed control at 15.625 g/ha [12] | pest or weed control at 62.5 g/ha [12] | pest or weed control at 250 g/ha [12]

Cc1onc(NC(=O)[C@@H]2C(=O)N(C)C[C@H]2c2ccc(C(F)(F)F)cc2)c1Cl (racemic) [Compound 1580]
0%: pest or weed control at 15.625 g/ha [1] | pest or weed control at 62.5 g/ha [1] | pest or weed control at 250 g/ha [1] | plant injury at 15.625 g/ha (corn (Zea mays) [2]) | plant injury at 62.5 g/ha (corn (Zea mays) [2]) | plant injury at 250 g/ha (corn (Zea mays) [2]) | pest or weed control at 15.625 g/ha [3] | pest or weed control at 62.5 g/ha [3] | pest or weed control at 250 g/ha [3] | pest or weed control at 15.625 g/ha [4] | pest or weed control at 62.5 g/ha [4] | pest or weed control at 250 g/ha [4] | pest or weed control at 15.625 g/ha [5] | pest or weed control at 62.5 g/ha [5] | pest or weed control at 250 g/ha [5] | pest or weed control at 15.625 g/ha [6] | pest or weed control at 62.5 g/ha [6] | pest or weed control at 250 g/ha [6] | pest or weed control at 15.625 g/ha [7] | pest or weed control at 62.5 g/ha [7] | pest or weed control at 250 g/ha [7] | plant injury at 15.625 g/ha (corn (Zea mays) [8]) | plant injury at 62.5 g/ha (corn (Zea mays) [8]) | plant injury at 250 g/ha (corn (Zea mays) [8]) | pest or weed control at 15.625 g/ha [9] | pest or weed control at 62.5 g/ha [9] | pest or weed control at 250 g/ha [9] | pest or weed control at 15.625 g/ha [10] | pest or weed control at 62.5 g/ha [10] | pest or weed control at 250 g/ha [10] | pest or weed control at 15.625 g/ha [11] | pest or weed control at 62.5 g/ha [11] | pest or weed control at 250 g/ha [11] | pest or weed control at 15.625 g/ha [12] | pest or weed control at 62.5 g/ha [12] | pest or weed control at 250 g/ha [12]
